Where a name gives a salt, the structure may show the parent alone.
The molecules below were run against T1, recombinant human beta tryptase (Homo sapiens, UniProt P20231) (assay: beta-Tryptase inhibition, chromogenic enzyme assay (substrate S2366, read at 405 nm)). Settings: Ki calculated from IC50: Ki=IC50/(1+[Substrate]/Km); 0.5 mM substrate, room temperature; read-out: Tryptase Ki.
T1 construct: made in house; host or cells: yeast cells
Assay type: biochemical
Excerpt: Inhibition of this catalytic activity may be measured by the in vitro enzyme assay and the cellular assay.
Tryptase inhibition activity is confirmed using either isolated human lung tryptase or recombinant human beta tryptase expressed in yeast cells. Essentially equivalent results are obtained using isolated native enzyme or the expressed enzyme. The assay procedure employs a 96 well microplate (Costar 3590) using L-pyroglutamyl-L-prolyl-L-arginine-para-nitroanilide (S2366: Quadratech) as substrate (essentially as described by McEuen et. al. Biochem Pharm, 1996, 52, pages 331-340). Assays are performed at room temperature using 0.5 mM substrate (2×Km) and the microplate is read on a microplate reader (Beckman Biomek Plate reader) at 405 nm wavelength.
Materials and Methods for Tryptase primary screen (Chromogenic assay)
S2366 (Stock solutions of 2.5 mM).
Purified recombinant beta Tryptase Stocks of 310 μg/mL. Protocol (Single point determination) • Add 60 μL of diluted substrate (final concentration of 500 μM in assay buffer) to each well • Add compound in duplicates, final concentration of 20 volume 20 • Add enzyme at a final concentration of 50 ng/mL in a volume of 20 • Total volume for each well is 100 • Agitate briefly to mix and incubate at room temp in the dark for 30 minutes • Read absorbencies at […] Each plate has the following controls: • Totals: 60 μL of substrate, 20 μL of buffer (with 0.2% final concentration of DMSO), • 20 μL of enzyme Non-specific: 60 μL of substrate, 40 μL of buffer (with 0.2% DMSO) Totals: 60 μL of substrate, 20 μL of buffer (No DMSO), 20 μL of enzyme Non-specific: 60 μL of substrate, 40 μL of buffer (No DMSO) Protocol (IC50 and Ki determination)
The protocol is essentially the same as above except that the compound is added in duplicates at the following final concentrations: 0.01, 0.03, 0.1, 0.3, 1, 3, 10 μM (All dilutions carried out manually). For every assay, whether single point or IC50 determination, a standard compound is used to derive IC50 for comparison. From the IC50 value, the Ki can be calculated using the following formula: Ki=IC50/(1+[Substrate]/Km).

T1 sequence (P20231 31-275): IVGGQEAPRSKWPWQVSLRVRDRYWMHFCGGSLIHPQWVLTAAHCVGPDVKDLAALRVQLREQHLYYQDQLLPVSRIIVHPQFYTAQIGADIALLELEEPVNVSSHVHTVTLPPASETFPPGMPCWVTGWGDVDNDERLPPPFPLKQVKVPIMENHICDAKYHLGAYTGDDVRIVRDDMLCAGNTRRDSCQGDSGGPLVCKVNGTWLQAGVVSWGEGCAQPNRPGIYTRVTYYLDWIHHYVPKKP

Compound | Ki [nM]
NCc1ccc(F)c(C2CCN(C(=O)c3cn(CCN4CCCC4)c4ccccc34)CC2)c1 [Example 38, [4-(5-Aminomethyl-2-fluoro-phenyl)-piperidin-1-yl]-[1-(2-pyrrolidin-1-yl-ethyl)-1H-indol-3-yl]-methanone dihydrochloride] | 66
COCCn1cc(C(=O)N2CCC(c3cc(CN)ccc3F)CC2)c2c(-c3cncc(Cl)c3)cccc21 [Example 65, [4-(5-Aminomethyl-2-fluoro-phenyl)-piperidin-1-yl]-[4-(5-chloro-pyridin-3-yl)-1-(2-methoxy-ethyl)-1H-indol-3-yl]-methanone dihydrochloride] | 11
COCCn1cc(C(=O)N2CCC(c3cc(CN)ccc3F)CC2)c2c(C(=O)O)cccc21 [Example 109, 3-[4-(5-Aminomethyl-2-fluoro-phenyl)-piperidine-1-carbonyl]-1-(2-methoxy-ethyl)-1H-indole-4-carboxylic acid trifluoroacetate] | 142

Same assay, conditions: Tryptase Ki (nM), Ki calculated from IC50: Ki=IC50/(1+[Substrate]/Km); 0.5 mM substrate, room temperature

Compound | Ki [nM]
COCCn1cc(C(=O)N2CCC(c3cc(CN)ccc3F)CC2)c2c(F)cccc21 [Example 51, [4-(5-Aminomethyl-2-fluoro-phenyl)-piperidin-1-yl]-[4-fluoro-1-(2-methoxy-ethyl)-1H-indol-3-yl]-methanone hydrochloride] | 54
CC(C)(O)CCn1cc(C(=O)N2CCC(c3cc(CN)ccc3F)CC2)c2ccccc21 [Example 50, [4-(5-Aminomethyl-2-fluoro-phenyl)-piperidin-1-yl]-[1-(3-hydroxy-3-methyl-butyl)-1H-indol-3-yl]-methanone hydrochloride] | 241
CCCCn1cc(C(=O)N2CCC(c3cc(CN)ccc3F)CC2)c2c(OC)cccc21 [Example 46, [4-(5-Aminomethyl-2-fluoro-phenyl)-piperidin-1-yl]-(1-butyl-4-methoxy-1H-indol-3-yl)-methanone hydrochloride] | 94
NCc1ccc(F)c(C2CCN(C(=O)c3cn(CCOC(F)(F)F)c4cccc(-c5ccccc5)c34)CC2)c1 [Example 80, [4-(5-Aminomethyl-2-fluoro-phenyl)-piperidin-1-yl]-[4-phenyl-1-(2-trifluoromethoxy-ethyl)-1H-indol-3-yl]-methanone hydrochloride] | 961
COCCn1cc(C(=O)N2CCC(c3cc(CN)ccc3F)CC2)c2cccc(C(F)(F)F)c21 [Example 11, [4-(5-Aminomethyl-2-fluoro-phenyl)-piperidin-1-yl]-[1-(2-methoxy-ethyl)-7-trifluoromethyl-1H-indol-3-yl]-methanone hydrochloride] | 56
COCCn1cc(C(=O)N2CCC(c3cc(CN)ccc3F)CC2)c2c(C(=O)N3CCCCC3)cccc21 [Example 94, [4-(5-Aminomethyl-2-fluoro-phenyl)-piperidine-1-yl]-[1-(2-methoxy-ethyl)-4-(piperidine-1-carbonyl)-1H-indol-3-yl]-methanone hydrochloride] | 21
COCCn1cc(C(=O)N2CCC(c3cc(CN)ccc3OCC(=O)N(C)C)CC2)c2cccc(C)c21 [Example 25, 2-(4-Aminomethyl-2-{1-[1-(2-methoxy-ethyl)-7-methyl-1H-indole-3-carbonyl]-piperidin-4-yl}-phenoxy)-N,N-dimethyl-acetamide hydrochloride] | 672
COCCn1cc(C(=O)N2CCC(c3cc(CN)ccc3F)CC2)c2c(NC(=O)c3ccno3)cccc21 [Example 103, Isoxazole-5-carboxylic acid [3-[4-(5-aminomethyl-2-fluoro-phenyl)-piperidine-1-carbonyl]-1-(2-methoxy-ethyl)-1H-indol-4-yl]-amide hydrochloride] | 41
Cc1cccc2c(C(=O)N3CCC(c4cc(CN)ccc4F)CC3)cn(CCC3CCCCN3C)c12 (stereo not drawn) [Example 8, [4-(5-Aminomethyl-2-fluoro-phenyl)-piperidin-1-yl]-{7-methyl-1-[2-(1-methyl-piperidin-2-yl)-ethyl]-1H-indol-3-yl}-methanone hydrochloride] | 35

— patent US20120245161A1 (SANOFI, priority 2009, published 2012)
